From US11712438B2, “Phenyl derivatives as PGE2 receptor modulators” (IDORSIA PHARMACEUTICALS LTD, priority 2017, dated 2023)

Experiments:
Assay in all cases: cell-based
EP4 = EP4 (Homo sapiens, UniProt P35408);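 also: inhibition of PGE2-evoked (6 nM) cAMP accumulation in BT549 breast cancer cells endogenously expressing EP4, cAMP read by HTRF competitive immunoassay after 30 min at room temperature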
EP2 = EP2 (Homo sapiens, UniProt P43116);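 also: SF295 glioblastoma cells with endogenous EP2 only, PGE2-stimulated cAMP accumulation read by HTRF competitive immunoassay, 45 min pre-incubation then 30 min at room temperature, IBMX in buffer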
Method: The antagonistic activities of the compounds of formula (I) on the EP2 and EP4 receptors are also determined in accordance with the following experimental method.
Human tumor cell lines expressing endogenously either EP4 or EP2 are used and cAMP accumulation in cells upon PGE2 stimulation is monitored. SF295 glioblastoma cells express high endogenous EP2 and no EP4,whereas BT549 breast cancer cells, express high endogenous EP4 levels and very low EP2 levels.
As a detection method for cAMP the HTRF (homogeneous time resolved fluorescence) Cisbio kit (HTRF cAMP dynamic 2 kit 20′000 tests Cisbio Cat. #62AM4PEC) was used, which is based on a competitive immunoassay using a Cryptate-labeled anti-cAMP antibody and d2-labeled cAMP. Native cAMP produced by cells or unlabeled cAMP (for the standard curve) compete with exogenously added d2-labeled cAMP (acceptor) for binding to monoclonal anti-cAMP-Eu3+ Cryptate (donor). A FRET signal (Fluorescence Resonance Energy Transfer) is obtained only if the labeled anti-cAMP antibody binds the d2 labelled cAMP, thus the specific signal (i.e. energy transfer) is inversely proportional to the concentration of cAMP in the standard or sample.
The SF295 cells (NCI/No. 0503170) are detached from culture dishes with a cell dissociation buffer (Invitrogen, 13151-014), and collected in growing medium (GM: RPM11640 (Invitrogen 21875)/10% FCS, 1% Penicilin/streptomycin). Cells are counted washed and resuspended in assay buffer (AB; HBSS, 20 mM HEPES, 0.2% BSA; 2 mM IBMX). 4′000 cells in 5 μl of AB are seeded per well of a small volume 384 well plate (black with flat bottom, Greiner 784076).
PGE2 (Cayman 14010, stock solution: 750 in DMSO) is used as agonist at 75 nM final concentration, corresponding to EC80.
Two point five microliters of diluted compounds are transferred into the assay plate. Plate is pre-incubated 45 minutes at room temperature. Subsequently, 2.5 microliters of PGE2 (final conc. 75 nM) are transferred into the assay plate. Plate is incubated 30 minutes at room temperature.
For each compound concentration the percentage of cAMP compared to DMSO control value as average±STDEV (each concentration is measured in duplicate) is calculated.

PTGER2 (EP2) = PTGER2 (EP2) (Homo sapiens, UniProt P43116)
PTRGER4 (EP4) = PTRGER4 (EP4) (Homo sapiens, UniProt P35408);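 also: assay plate preincubated 15 min at 37 °C, after which PGE2 was added at 20 nM final and incubation continued 120 min at 37 °C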
Sequence of PTRGER4 (EP4) (P35408 whole entry): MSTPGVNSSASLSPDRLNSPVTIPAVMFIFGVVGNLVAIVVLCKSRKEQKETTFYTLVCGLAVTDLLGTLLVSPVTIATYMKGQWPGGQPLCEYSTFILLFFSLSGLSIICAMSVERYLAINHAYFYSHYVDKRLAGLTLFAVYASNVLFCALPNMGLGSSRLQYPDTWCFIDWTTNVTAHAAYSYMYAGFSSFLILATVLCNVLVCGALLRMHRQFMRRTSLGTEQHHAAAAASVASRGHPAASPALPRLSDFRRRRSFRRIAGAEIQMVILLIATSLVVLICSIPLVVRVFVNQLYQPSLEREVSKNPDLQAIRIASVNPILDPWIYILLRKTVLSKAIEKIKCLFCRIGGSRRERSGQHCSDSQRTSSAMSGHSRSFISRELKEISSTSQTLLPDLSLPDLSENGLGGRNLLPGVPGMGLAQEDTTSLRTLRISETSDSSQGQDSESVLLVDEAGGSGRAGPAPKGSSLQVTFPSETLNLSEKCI

Sequence of EP4 (P35408 whole entry): as above
Sequence of PTGER2 (EP2) (P43116 whole entry): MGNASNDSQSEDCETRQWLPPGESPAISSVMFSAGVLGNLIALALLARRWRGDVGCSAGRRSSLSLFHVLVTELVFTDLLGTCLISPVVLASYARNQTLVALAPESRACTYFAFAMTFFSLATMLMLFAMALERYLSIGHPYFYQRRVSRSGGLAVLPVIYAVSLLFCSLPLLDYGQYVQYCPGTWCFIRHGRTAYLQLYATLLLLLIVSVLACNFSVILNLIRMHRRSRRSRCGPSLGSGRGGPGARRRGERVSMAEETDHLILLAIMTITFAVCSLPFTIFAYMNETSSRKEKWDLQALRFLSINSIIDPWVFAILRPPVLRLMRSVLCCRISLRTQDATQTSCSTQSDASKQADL
Sequence of EP2 (P43116 whole entry): as above

| Structure (SMILES) | IC50 (EP4) | IC50 (EP2) | IC50 (PTGER2 (EP2)) | IC50 (PTRGER4 (EP4)) |
| --- | --- | --- | --- | --- |
| CCOc1cc(-c2cc(NCCc3ccc(Cl)c(Cl)c3)ncn2)sc1-c1noc(=O)[nH]1 [Example 121, 3-(5-{6-[2-(3,4-Dichloro-phenyl)-ethylamino]-pyrimidin-4-yl}-3-ethoxy-thiophen-2-yl)-[1,2,4]oxadiazol-5(4H)-one] | 42 nM | 60 nM | 66 nM | 9 nM |
| CCOc1cc(-c2cc(NCCc3ccc(SC)cc3OC)ncn2)ccc1C(=O)O [Example 6, 2-Ethoxy-4-{6-[2-(2-methoxy-4-methylsulfanyl-phenyl)-ethylamino]-pyrimidin-4-yl}-benzoic acid] | 573 nM | 702 nM | 1350 nM | 1210 nM |
| CCc1cc(-c2cc(NCCc3c(F)cccc3F)ncn2)sc1C(=O)O [Example 53, 5-{6-[2-(2,6-Difluoro-phenyl)-ethylamino]-pyrimidin-4-yl}-3-ethyl-thiophene-2-carboxylic acid] | 221 nM | 63 nM | 437 nM | 472 nM |
| Cc1cc(-c2cc(NCCc3c(F)cc(Br)cc3F)ncn2)cc(C)c1O [Example 250, 4-{6-[2-(4-Bromo-2,6-difluoro-phenyl)-ethylamino]-pyrimidin-4-yl}-2,6-dimethyl-phenol] | 887 nM | 856 nM | 78 nM | 169 nM |
| CCOc1cc(-c2cc(NCCc3ccc(O)c(OC)c3)ncn2)sc1-c1noc(=O)[nH]1 [Example 118, 3-(3-Ethoxy-5-{6-[2-(4-hydroxy-3-methoxy-phenyl)-ethylamino]-pyrimidin-4-yl}-thiophen-2yl)-[1,2,4]oxadiazol-5(4H)-one] | 148 nM | 266 nM | 488 nM | 316 nM |
| CCOc1cc(-c2cc(NCCc3ccc(Br)cc3F)ncn2)ccc1C(=O)O [Example 21, 4-{6-[2-(4-Bromo-2-fluoro-phenyl)-ethylamino]-pyrimidin-4-yl}-2-ethoxy-benzoic acid] | 80 nM | 193 nM | 248 nM | 779 nM |
| CCCCOc1cc(-c2cc(NCCc3c(F)cc(Br)cc3F)ncn2)ccc1C(=O)O [Example 43, 4-{6-[2-(4-Bromo-2,6-difluoro-phenyl)-ethylamino]-pyrimidin-4-yl}-2-butoxy-benzoic acid] | 514 nM | 66 nM | 55 nM | 208 nM |
| O=C(O)c1ccc(-c2cc(NCCc3c(F)cc(Br)cc3F)ncn2)s1 [Example 26, 5-{6-[2-(4-Bromo-2,6-difluoro-phenyl)-ethylamino]-pyrimidin-4-yl}-thiophene-2-carboxylic acid] | 115 nM | 46 nM | 149 nM | 104 nM |
| CCOc1cc(-c2cc(NCCc3c(C)cccc3OC)ncn2)sc1C(=O)O [Example 178, 3-Ethoxy-5-{6-[2-(2-methoxy-6-methyl-phenyl)-ethylamino]-pyrimidin-4-yl}-thiophene-2-carboxylic acid] | 134 nM | 10 nM | 29 nM | 404 nM |
| CCOc1cc(-c2cc(NCCc3cc(Cl)ccc3Br)ncn2)sc1-c1noc(=O)[nH]1 [Example 94, 3-(5-{6-[2-(2-Bromo-5-chloro-phenyl)-ethylamino]-pyrimidin-4-yl}-3-ethoxy-thiophen-2-yl)-[1,2,4]oxadiazol-5(4H)-one] | 93 nM | 82 nM | 79 nM | 90 nM |
| O=C(O)c1cccc2cc(-c3cc(NCCc4c(F)cc(Br)cc4F)ncn3)[nH]c12 [Example 263, 2-{6-[2-(4-Bromo-2,6-difluoro-phenyl)-ethylamino]-pyrimidin-4-yl}-1H-indole-7-carboxylic acid] | 73 nM | 167 nM | 31 nM | 73 nM |
| CCOc1cc(F)ccc1CCNc1cc(-c2cc(OCC)c(-c3noc(=O)[nH]3)s2)ncn1 [Example 95, 3-(3-Ethoxy-5-{6-[2-(2-ethoxy-4-fluoro-phenyl)-ethylamino]-pyrimidin-4-yl}-thiophen-2-yl)-[1,2,4]oxadiazol-5(4H)-one] | 166 nM | 15 nM | 30 nM | 59 nM |
| CCOc1cc(-c2cc(NCCc3c(F)cc(Cl)cc3OC)ncn2)sc1-c1noc(=O)[nH]1 [Example 86, 3-(5-{6-[2-(4-Chloro-2-fluoro-6-methoxy-phenyl)-ethylamino]-pyrimidin-4-yl}-3-ethoxy-thiophen-2yl)-[1,2,4]oxadiazol-5(4H)-one] | 89 nM | 84 nM | 16 nM | 30 nM |
| O=c1[nH]c(-c2ccc(-c3cc(NCCc4c(F)cc(Br)cc4F)ncn3)s2)no1 [Example 135, 3-(5-{6-[2-(4-Bromo-2,6-difluoro-phenyl)-ethylamino]-pyrimidin-4-yl}-thiophen-2-yl)-[1,2,4]oxadiazol-5(4H)-one] | 34 nM | 15 nM | 26 nM | 8 nM |
| CCc1cc(-c2cc(NCCc3c(F)cc(Br)cc3F)ncn2)ccc1C(=O)OC [Example 245, 4-{6-[2-(4-Bromo-2,6-difluoro-phenyl)-ethylamino]-pyrimidin-4-yl}-2-ethyl-benzoic acid methyl ester] | 6720 nM | 4630 nM | 392 nM | 307 nM |
| Cc1ccc(CCNc2cc(-c3cc(C(F)(F)F)c(C(=O)O)s3)ncn2)c(C)c1 [Example 64, 5-{6-[2-(2,4-Dimethyl-phenyl)-ethylamino]-pyrimidin-4-yl}-3-trifluoromethyl-thiophene-2-carboxylic acid] | 38 nM | 244 nM | 316 nM | 205 nM |

Now those with a lower IC50 (EP4), led by results:

| IC50 (EP4) | IC50 (EP2) | IC50 (PTGER2 (EP2)) | IC50 (PTRGER4 (EP4)) | Structure (SMILES) |
| --- | --- | --- | --- | --- |
| 30 nM | 9 nM | 12 nM | 5 nM | CCOc1cc(-c2cc(NCCc3c(F)cc(Br)cc3F)ncn2)sc1-c1nnc(O)o1 [Example 152, 5-(5-{6-[2-(4-bromo-2,6-difluoro-phenyl)-ethylamino]-pyrimidin-4-yl}-3-ethoxy-thiophen-2-yl)-[1,3,4]-oxadiazol-2-ol] |
| 29 nM | 43 nM | 69 nM | 3 nM | CCc1nc(-c2cc(NCCc3c(F)cc(Br)cc3F)ncn2)sc1-c1noc(=O)[nH]1 [Example 151, 3-(2-{6-[2-(4-Bromo-2,6-difluoro-phenyl)-ethylamino]-pyrimidin-4-yl}-4-ethyl-thiazol-5-yl)-[1,2,4]oxadiazol-5(4H)-one] |
| 28 nM | 17 nM | 25 nM | 38 nM | O=C(O)Cc1sc(-c2cc(NCCc3c(F)cc(Br)cc3F)ncn2)cc1OC(F)F [Example 315, (5-{6-[2-(4-Bromo-2,6-difluoro-phenyl)-ethylamino]-pyrimidin-4-yl}-3-difluoromethoxy-thiophen-2-yl)-acetic acid] |
| 26 nM | 137 nM | 31 nM | 6 nM | CCOc1cc(-c2cc(NCCc3cc(F)c(Br)cc3C)ncn2)sc1-c1noc(=O)[nH]1 [Example 111, 3-(5-{6-[2-(4-Bromo-5-fluoro-2-methyl-phenyl)-ethylamino]-pyrimidin-4-yl}-3-ethoxy-thiophen-2yl)-[1,2,4]oxadiazol-5(4H)-one] |
| 24 nM | 63 nM | 22 nM | 4 nM | CCOc1cc(-c2cc(NCCc3ccc(Br)cc3)ncn2)sc1-c1noc(=O)[nH]1 [Example 130, 3-(5-{6-[2-(4-Bromo-phenyl)-ethylamino]-pyrimidin-4-yl}-3-ethoxy-thiophen-2-yl)-[1,2,4]oxadiazol-5(4H)-one] |
| 18 nM | 17 nM | 18 nM | 6 nM | Cc1cc(-c2cc(NCCc3c(F)cc(Br)cc3F)ncn2)sc1-c1noc(=O)[nH]1 [Example 136, 3-(5-{6-[2-(4-Bromo-2,6-difluoro-phenyl)-ethylamino]-pyrimidin-4-yl}-3-methyl-thiophen-2-yl)-[1,2,4]oxadiazol-5(4H)-one] |
| 12 nM | 7 nM | 8 nM | 6 nM | CCOc1cc(Br)ccc1CCNc1cc(-c2cc(OCC)c(-c3noc(=O)[nH]3)s2)ncn1 [Example 85, 3-(5-{6-[2-(4-Bromo-2-ethoxy-phenyl)-ethylamino]-pyrimidin-4-yl}-3-ethoxy-thiophen-2-yl)-[1,2,4]oxadiazol-5(4H)-one] |
| 11 nM | 27 nM | 81 nM | 92 nM | CCOc1cc(-c2cc(NCCc3c(C)cc(C)cc3OC)ncn2)sc1C(=O)O [Example 203, 3-Ethoxy-5-{6-[2-(2-methoxy-4,6-dimethyl-phenyl)-ethylamino]-pyrimidin-4-yl}-thiophene-2-carboxylic acid] |
| 8 nM | 19 nM | 20 nM | 9 nM | CCOc1nc(-c2cc(NCCc3c(F)cc(Br)cc3F)ncn2)sc1C(=O)O [Example 148, 2-{6-[2-(4-Bromo-2,6-difluoro-phenyl)-ethylamino]-pyrimidin-4-yl}-4-ethoxy-thiazole-5-carboxylic acid] |
| 7 nM | 11 nM | 10 nM | 2 nM | CCOc1cc(-c2cc(NCCc3cc(F)c(Br)cc3F)ncn2)sc1-c1noc(=O)[nH]1 [Example 107, 3-(5-{6-[2-(4-Bromo-2,5-difluoro-phenyl)-ethylamino]-pyrimidin-4-yl}-3-ethoxy-thiophen-2yl)-[1,2,4]oxadiazol-5(4H)-one] |
| 6 nM | 31 nM | 9 nM | 2 nM | CCOc1cc(-c2cc(NCCc3c(OC)cc(Br)cc3OC)ncn2)sc1-c1noc(=O)[nH]1 [Example 88, 3-(5-{6-[2-(4-Bromo-2,6-dimethoxy-phenyl)-ethylamino]-pyrimidin-4-yl}-3-ethoxy-thiophen-2yl)-[1,2,4]oxadiazol-5(4H)-one] |
